Assay results as given in US8524716B2, “Macrocyclic indoles as hepatitis C virus inhibitors” (priority 2007, dated 2013).
Read-outs that look alike come from different tables or passages of the source.

Experiments:
[1] = rcm bond, Hoveyda-Grubbs 1st generation catalyst, 80.0 °C
[2] = from C=CCCNC(=O)c1cc(C)c2c(C3CCCCC3)c(-c3ccc4nc(-c5cc(OC)ccc5-c5ccc(Cl)cc5)ccc4c3)n(C(=O)NCCC=C)c2c1; rcm bond; 15-membered ring; Hoveyda-Grubbs 1st gen (0.42 eq); DCE; 1.32 mM; 80.0 °C

| Compound | ring closure, yield of all isomers ([1]; from C=CCCNC(=O)Cn1c(-c2ccoc2)c(C2CCCCC2)c2ccc(C(=O)NCCC=C)cc21, 1,2-dichloroethane, 1.585 mM, 15.0 h) | ring closure, isolated yield [2] | ring closure, yield of all isomers ([1]; from C=CCCNC(=O)Cn1c(-c2ccc3nc(-c4cc(OC)ccc4-c4ccc(Cl)cc4)ccc3c2)c(C2CCCCC2)c2ccc(C(=O)NCCC=C)cc21, DCE, 1.32 mM) |
| --- | --- | --- | --- |
| O=C1Cn2c(-c3ccoc3)c(C3CCCCC3)c3ccc(cc32)C(=O)NCCC=CCCN1 | 22% | – | – |
| COc1ccc(-c2ccc(Cl)cc2)c(-c2ccc3cc(-c4c(C5CCCCC5)c5ccc6cc5n4CC(=O)NCCC=CCCNC6=O)ccc3n2)c1 | – | 30% | 30% |
